Drawing on patent US9540380B2, “Imidazotriazinone compounds” (Ironwood Pharmaceuticals, Inc., priority 2010, dated 2017), this text covers IC50 for 23 compounds.

In this experiment the target is T1, PDE9A2 (Homo sapiens, UniProt O76083).
T1 construct: purchased Reaction Biology Corporation, Malvern, Pa
The experiment can be described thus: Phosphodiesterase Enzyme Screening Assay, PDE9A2 (Caliper LabChip mobility-shift). It is filed as biochemical. The note with it: 10 concentrations, 4.0 μM cGMP substrate, 1 hour at R.T.; read-out: Band (PDE9A2 IC50). From the text: Compounds of the invention were screened against PDE1A, PDE1B, PDE2A, PDE3A, PDE3B, PDE4A1A, PDE4B1, PDE4D3, PDE5A1, PDE6C, PDE7A, PDE8A1, PDE9A2, PDE10A2 AND PDE11A isoforms of the phosphodiesterase enzyme to determine activity and overall selectivity through comparative analysis. The assay generally consists of testing the compounds of the invention at 10 concentrations. Where 8-methoxy-IBMX and Zaprinast were used as reference inhibitors.
The phosphodiesterase enzyme isoforms were obtained from a commercial retailer (Reaction Biology Corporation, Malvern, Pa.) for use in the instant screening assay.
The analysis was completed using the Caliper LabChip 3000 and a 12-sipper LabChip. LabChip assays are separations-based, meaning that the product and substrate are electrophoretically separated, thereby minimizing interferences and yielding the highest data quality available on any screening platform. Z′ factors for both the EZ Reader and LC3000 enzymatic assays are routinely in the 0.8 to 0.9 range. High Z′ values, few false positives, few false negatives and analytical quality reproducibility are the reasons cited for the increasing reliance on the LabChip assays.
The off-chip incubation mobility-shift phosphodiesterase assay uses a microfluidic chip to measure the conversion of a fluorescent cyclic AMP substrate to a 5′-AMP product, or a cyclic GMP substrate to a 5′-GMP product. The reaction mixture, from a microtiter plate well, is introduced through a capillary sipper onto the chip, where the fluorescent substrate and product are separated by electrophoresis and detected via laser-induced fluorescence. […] The precision of microfluidics allows researchers to detect subtle interactions between drug candidates and therapeutic targets. The technology is able to detect both strong and weak inhibitors with high accuracy, and routinely identifies drug candidates that conventional techniques miss.
Reactions were carried out in 100 mM HEPES (pH 7.5), 5 mM MgCl2, 1 mM DTT, 0.003% Brij, 4.0 μM cGMP substrate. The reaction was started by addition of cGMP or cAMP and incubated for 1 hour at R.T. The reaction was terminated by the addition of stop buffer containing 100 mM HEPES (pH 7.5), 15 mM EDTA, 0.015% Brij-35, 5% DMSO. Cyclic AMP/GMP substrate and 5′-AMP/5′-GMP product were separated by charge using electrophoretic mobility shift. Product formed was compared to control wells to determine inhibition or enhancement of enzyme activity.
One or more reference compounds, depending on phosphodiesterase isoform, selected from 8-methoxy-IBMX, Zaprinast, Trequinsin, Pentoxifyline, Rolipram, and Vinpocetine, Dipyridamole, and BRL-50481 were run alongside client samples to ensure data quality. The resulting IC50 is compared against the historical average and must be within 3-fold of this average.
Data points were averages of quadruplicate wells and error bars represented the SEM for each point. IC50s were determined using GraphPad Prism Version 5.01 and the log (inhibitor) vs. response variable slope curve fit.

A value given as a limit tells only on which side of the number the result lay.

T1 sequence (O76083 1-533 isoform O76083-2): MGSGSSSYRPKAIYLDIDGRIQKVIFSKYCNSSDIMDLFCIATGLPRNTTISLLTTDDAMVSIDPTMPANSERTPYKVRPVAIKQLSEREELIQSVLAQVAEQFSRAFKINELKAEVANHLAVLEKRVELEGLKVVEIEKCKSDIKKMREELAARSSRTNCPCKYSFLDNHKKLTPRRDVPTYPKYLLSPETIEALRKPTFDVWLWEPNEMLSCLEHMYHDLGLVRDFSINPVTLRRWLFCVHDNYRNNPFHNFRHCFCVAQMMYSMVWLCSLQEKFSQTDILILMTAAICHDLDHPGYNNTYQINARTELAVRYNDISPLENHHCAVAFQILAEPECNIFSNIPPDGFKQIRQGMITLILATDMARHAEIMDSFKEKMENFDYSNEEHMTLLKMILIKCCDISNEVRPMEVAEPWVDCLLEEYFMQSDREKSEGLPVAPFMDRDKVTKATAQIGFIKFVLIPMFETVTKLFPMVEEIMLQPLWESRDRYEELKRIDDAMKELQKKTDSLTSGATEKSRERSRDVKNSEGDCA

Take `CCS(=O)(=O)N1CCC(c2ncc3c(=O)[nH]c([C@@H]4CN(Cc5ncccn5)C[C@H]4C)nn23)CC1` (single isomer, unassigned) [(−)-7-(1-(ethylsulfonyl)piperidin-4-yl)-2-((3,4-trans)-4-methyl-1-(pyrimidin-2-ylmethyl)pyrrolidin-3-yl)imidazo[5,1-f][1,2,4]triazin-4(3H)-one]: the IC50 is greater than 10000 nM.
`C[C@@H]1CN(Cc2ccccc2)C[C@H]1c1nn2c(C(C)(C)O)ncc2c(=O)[nH]1` (single isomer, unassigned) [(−)-2-((3,4-trans)-1-benzyl-4-methylpyrrolidin-3-yl)-7-(2-hydroxypropan-2-yl)imidazo[5,1-f][1,2,4]triazin-4(3H)-one]: the IC50 is greater than 10000 nM.
`CC(=O)N1CCC(c2ncc3c(=O)[nH]c([C@@H]4CN(Cc5ncccn5)C[C@H]4C)nn23)CC1` (single isomer, unassigned) [(+)-7-(1-acetylpiperidin-4-yl)-2-((3,4-trans)-4-methyl-1-(pyrimidin-2-ylmethyl)pyrrolidin-3-yl)imidazo[5,1-f][1,2,4]triazin-4(3H)-one]: the IC50 fell in the range of 1000 to 10000 nM.
As to `Cc1ccc(Cl)cc1-c1ncc2c(=O)[nH]c([C@@H]3CNC[C@H]3C)nn12` (relative stereo) [(−)-7-(5-chloro-2-methylphenyl)-2-((3,4-trans)-4-methylpyrrolidin-3-yl)imidazo[5,1-f][1,2,4]triazin-4(3H)-one], the IC50 fell in the range of 1000 to 10000 nM.
Then `CCS(=O)(=O)N1CCC(c2ncc3c(=O)[nH]c([C@@H]4CN(Cc5ncccn5)C[C@H]4C)nn23)CC1` (single isomer, unassigned) [(+)-7-(1-(ethylsulfonyl)piperidin-4-yl)-2-((3,4-trans)-4-methyl-1-(pyrimidin-2-ylmethyl)pyrrolidin-3-yl)imidazo[5,1-f][1,2,4]triazin-4(3H)-one], with 1000 to 10000 nM.
For the compound `C[C@@H]1CN(Cc2ccc3ccccc3n2)C[C@H]1c1nn2c(C3CCOCC3)ncc2c(=O)[nH]1` (single isomer, unassigned) [(+)-2-((3,4-trans)-4-methyl-1-(quinolin-2-ylmethyl)pyrrolidin-3-yl)-7-(tetrahydro-2H-pyran-4-yl)imidazo[5,1-f][1,2,4]triazin-4(3H)-one], the IC50 was less than 1000 nM.
For the compound `C[C@@H]1CN(Cc2ccc3nccn3n2)C[C@H]1c1nn2c(C3CCOCC3)ncc2c(=O)[nH]1` (single isomer, unassigned) [(−)-2-((3,4-trans)-1-(imidazo[1,2-b]pyridazin-6-ylmethyl)-4-methylpyrrolidin-3-yl)-7-(tetrahydro-2H-pyran-4-yl)imidazo[5,1-f][1,2,4]triazin-4(3H)-one], the IC50 is less than 1000 nM.
As for `C[C@@H]1CN(Cc2ncccn2)C[C@H]1c1nn2c(C3CCOCC3)ncc2c(=O)[nH]1` (single isomer, unassigned) [(−)-2-((3,4-trans)-4-methyl-1-(pyrimidin-2-ylmethyl)pyrrolidin-3-yl)-7-(tetrahydro-2H-pyran-4-yl)imidazo[5,1-f][1,2,4]triazin-4(3H)-one], the IC50 was greater than 10000 nM.
With `CC1CN(Cc2ccccc2)CC1c1nn2c(C34CC5CC(CC(C5)C3)C4)ncc2c(=O)[nH]1` (single isomer, unassigned; (+)), the half-inhibitory concentration (IC50) is less than 1000 nM.
With `Cc1cc(F)ccc1-c1ncc2c(=O)[nH]c([C@@H]3CN(Cc4ccccc4)C[C@H]3C)nn12` (single isomer, unassigned) [(+)-2-((3,4-trans)-1-benzyl-4-methylpyrrolidin-3-yl)-7-(4-fluoro-2-methylphenyl)imidazo[5,1-f][1,2,4]triazin-4(3H)-one], the IC50 is less than 1000 nM.
As to `Cc1ccc(Cl)cc1-c1ncc2c(=O)[nH]c([C@@H]3CN(Cc4ccccc4)C[C@H]3C)nn12` (single isomer, unassigned) [(+)-2-((3,4-trans)-1-benzyl-4-methylpyrrolidin-3-yl)-7-(5-chloro-2-methylphenyl)imidazo[5,1-f][1,2,4]triazin-4(3H)-one], the IC50 is less than 1000 nM.
With `CC(=O)N1CCC(c2ncc3c(=O)[nH]c([C@@H]4CN(Cc5ncccn5)C[C@H]4C)nn23)CC1` (single isomer, unassigned) [(−)-7-(1-acetylpiperidin-4-yl)-2-((3,4-trans)-4-methyl-1-(pyrimidin-2-ylmethyl)pyrrolidin-3-yl)imidazo[5,1-f][1,2,4]triazin-4(3H)-one], the IC50 was greater than 10000 nM.
Turning to `CCS(=O)(=O)N1CCC(c2ncc3c(=O)[nH]c([C@@H]4CN(Cc5ccccc5)C[C@H]4C)nn23)CC1` (single isomer, unassigned) [(−)-2-((3,4-trans)-1-benzyl-4-methylpyrrolidin-3-yl)-7-(1-(ethylsulfonyl)piperidin-4-yl)imidazo[5,1-f][1,2,4]triazin-4(3H)-one], the IC50 was greater than 10000 nM.
With `C[C@@H]1CN(Cc2ccccc2)C[C@H]1c1nn2c(C(C)(C)O)ncc2c(=O)[nH]1` (single isomer, unassigned) [(+)-2-((3,4-trans)-1-benzyl-4-methylpyrrolidin-3-yl)-7-(2-hydroxypropan-2-yl)imidazo[5,1-f][1,2,4]triazin-4(3H)-one], the IC50 was in the range of 1000 to 10000 nM.
For the compound `C[C@@H]1CN(Cc2ncccn2)C[C@H]1c1nn2c(C3CCC(F)(F)CC3)ncc2c(=O)[nH]1` (single isomer, unassigned) [(+)-7-(4,4-difluorocyclohexyl)-2-((3,4-trans)-4-methyl-1-(pyrimidin-2-ylmethyl)pyrrolidin-3-yl)imidazo[5,1-f][1,2,4]triazin-4(3H)-one], the IC50 is less than 1000 nM.
Then `C[C@@H]1CN(Cc2cnccn2)C[C@H]1c1nn2c(C3CCOCC3)ncc2c(=O)[nH]1` (single isomer, unassigned) [(+)-2-((3,4-trans)-4-methyl-1-(pyrazin-2-ylmethyl)pyrrolidin-3-yl)-7-(tetrahydro-2H-pyran-4-yl)imidazo[5,1-f][1,2,4]triazin-4(3H)-one], with less than 1000 nM.
Regarding `C[C@@H]1CN(Cc2ccccc2)C[C@H]1c1nn2c(C3CCC(F)(F)CC3)ncc2c(=O)[nH]1` (single isomer, unassigned) [(+)-2-((3,4-trans)-1-benzyl-4-methylpyrrolidin-3-yl)-7-(4,4-difluorocyclohexyl)imidazo[5,1-f][1,2,4]triazin-4(3H)-one], the 50% inhibitory concentration (IC50) is less than 1000 nM.
Under `CC(=O)N1CCC(c2ncc3c(=O)[nH]c([C@@H]4CN(Cc5ccccc5)C[C@H]4C)nn23)CC1` (single isomer, unassigned) [(+)-7-(1-acetylpiperidin-4-yl)-2-((3,4-trans)-1-benzyl-4-methylpyrrolidin-3-yl)imidazo[5,1-f][1,2,4]triazin-4(3H)-one] stands less than 1000 nM; under `C[C@@H]1CN(Cc2ccc(F)cc2)C[C@H]1c1nn2c(C3CCOCC3)ncc2c(=O)[nH]1` (single isomer, unassigned) [(+)-2-((3,4-trans)-1-(4-fluorobenzyl)-4-methylpyrrolidin-3-yl)-7-(tetrahydro-2H-pyran-4-yl)imidazo[5,1-f][1,2,4]triazin-4(3H)-one], less than 1000 nM; under `CC1CN(Cc2ncccn2)CC1c1nn2c(C34CC5CC(CC(C5)C3)C4)ncc2c(=O)[nH]1` (single isomer, unassigned; (+)), less than 1000 nM.
Consider `CC(=O)N1CCC(c2ncc3c(=O)[nH]c([C@@H]4CN(Cc5ccccc5)C[C@H]4C)nn23)CC1` (single isomer, unassigned) [(−)-7-(1-acetylpiperidin-4-yl)-2-((3,4-trans)-1-benzyl-4-methylpyrrolidin-3-yl)imidazo[5,1-f][1,2,4]triazin-4(3H)-one], for which the IC50 is greater than 10000 nM.
As for `C[C@@H]1CN(Cc2ccc3ccccc3n2)C[C@H]1c1nn2c(C3CCOCC3)ncc2c(=O)[nH]1` (single isomer, unassigned) [(−)-2-((3,4-trans)-4-methyl-1-(quinolin-2-ylmethyl)pyrrolidi] [(−)-2-((3,4-trans)-4-methyl-1-(quinolin-2-ylmethyl)pyrrolidin-3-yl)-7-(tetrahydro-2H-pyran-4-yl)imidazo[5,1-f][1,2,4]triazin-4(3H)-one], the IC50 is less than 1000 nM.
As to `Cc1ccc(Cl)cc1-c1ncc2c(=O)[nH]c([C@@H]3CN(Cc4ccccc4)C[C@H]3C)nn12` (single isomer, unassigned) [(−)-2-((3,4-trans)-1-benzyl-4-methylpyrrolidin-3-yl)-7-(5-chloro-2-methylphenyl)imidazo[5,1-f][1,2,4]triazin-4(3H)-one], the IC50 lay within 1000 to 10000 nM.

For orientation: IC50 means the concentration that inhibits the measured activity by half.
